From patent US4112228A, “7-(D-α-Hydroxy-2-arylacetamido)-3-(2-carboxyalkyl-2,3-dihydro-s-tri azolo-[4,3-b]pyridazin-3-on-6-ylthiomethyl)-3-cephem-4-carboxylic acids and derivatives” (priority 1977, dated 1978)
≈ marks a conversion by molar mass, not a printed value. Read-outs that look alike come from different tables or passages of the source.

How the values were obtained:
[1] = test system: Enterob. cloacae; test: MIC by Steers' agar dilution method
[2] = test system: D. pneumoniae; test: MIC by Steers' agar dilution method
[3] = test system: P. inconstans; test: MIC by Steers' agar dilution method; conditions: Providencia alcalifaciens
[4] = test system: P. stuartii; test: MIC by Steers' agar dilution method; conditions: Providencia stuartii
[5] = test system: Klebsiella sp.; test: MIC by Steers' agar dilution method
[6] = Blood levels in mice after subcutaneous administration; type: in vivo; conditions: mouse, read-out: Blood level; for concentration at 0.25 h: 15'; for concentration at 0.5 h: 30'; for concentration at 1 h: 60'; for concentration at 2 h: 120'
Description: Groups of mice were administered subcutaneously graded doses of 40, 20 and 10 mg./kg..

[7] = test system: P. mirabilis A9900 (Pm-2); test: Standard experimental infection (single sc treatment); conditions: for No. of survivors/No. tested: Run C-810, 1×10^3 LD50, single sc

Question: For `O=C(O)Cn1nc2ccc(SCC3=C(C(=O)O)N4C(=O)C(NC(=O)[C@H](O)c5ccccc5)[C@H]4SC3)nn2c1=O` (stereo partly drawn) [BB-S488, 7-(D-Mandelamido)-3-(2-carboxymethyl-2,3-dihydro-s-triazolo[4,3-b]pyridazin-3-on-6-ylthiomethyl)-3-cephem-4-carboxylic Acid], which MIC ([1]; El-4 A20650, MHA, Table 3) is on record?
Answer: Its MIC is 1.6 µg/mL (≈ 2.79 µM).

Question: And the MIC ([1]; El-6 A9657, MHA, Table 3)?
Answer: The MIC was 0.8 µg/mL (≈ 1.4 µM).

Question: And the MIC ([1]; El-7 A9659, MHA, Table 3)?
Answer: The MIC was 1.6 µg/mL (≈ 2.79 µM).

Question: And the MIC ([1]; El-8 A9655, MHA, Table 3)?
Answer: Its MIC is 1.6 µg/mL (≈ 2.79 µM).

Question: And the MIC ([1]; El-9 A20021, MHA, Table 3)?
Answer: The MIC was over 100 µg/mL.

Question: What about the MIC ([1]; El-11 A20344 (β-lactamase), HIA, Table 4) of the same molecule?
Answer: The MIC was over 100 µg/mL.

Question: What about the MIC ([1]; El-11 A20344 (β-lactamase), MHA, Table 4) of the same molecule?
Answer: The MIC was over 100 µg/mL.

Question: What about the MIC ([1]; El-11 A20344 (β-lactamase), NA, Table 4) of the same molecule?
Answer: The MIC was over 100 µg/mL.

Question: What about the MIC ([1]; El-11 A20344, MHA, Table 3) of the same molecule?
Answer: The MIC was over 100 µg/mL.

Question: And the MIC ([1]; El-12 A21006, MHA, Table 3)?
Answer: The MIC was 1.6 µg/mL (≈ 2.79 µM).

Question: What about the MIC ([1]; El-14 A20953, MHA, Table 3) of the same molecule?
Answer: The MIC was 0.8 µg/mL (≈ 1.4 µM).

Question: And the MIC ([1]; MHA, Example 10)?
Answer: The MIC was 3.1 µg/mL (≈ 5.41 µM).

Question: What about the MIC ([2]; Dp-2 Type I Neufeld, MHA, Table 2) of the same molecule?
Answer: Its MIC is 0.2 µg/mL (≈ 0.349 µM).

Question: And the MIC ([2]; Dp-3 Type III, MHA, Table 2)?
Answer: Its MIC is 0.2 µg/mL (≈ 0.349 µM).

Question: And the MIC ([2]; Dp-4 A9585, MHA, Table 2)?
Answer: Its MIC is 0.2 µg/mL (≈ 0.349 µM).

Question: What about the MIC ([2]; Dp-5 A15069, MHA, Table 2) of the same molecule?
Answer: Its MIC is 0.2 µg/mL (≈ 0.349 µM).

Question: And the MIC ([2]; Dp-6 A20167, MHA, Table 2)?
Answer: The MIC was 0.2 µg/mL (≈ 0.349 µM).

Question: And the MIC ([2]; Dp-7 A20759, MHA, Table 2)?
Answer: Its MIC is 0.2 µg/mL (≈ 0.349 µM).

Question: And the MIC ([2]; Dp-8 A20769, MHA, Table 2)?
Answer: Its MIC is 0.2 µg/mL (≈ 0.349 µM).

Question: What about the MIC ([2]; Dp-9 A20770, MHA, Table 2) of the same molecule?
Answer: The MIC was 0.2 µg/mL (≈ 0.349 µM).

Question: And the MIC ([2]; Streptococcus pneumoniae)?
Answer: The MIC was 0.2 µg/mL (≈ 0.349 µM).

Question: And the MIC [3]?
Answer: Its MIC is 0.1 µg/mL (≈ 0.175 µM).

Question: And the MIC ([4]; Ps-1 A20745, HIA, Table 4)?
Answer: Its MIC is 50 µg/mL (≈ 87.3 µM).

Question: And the MIC ([4]; Ps-1 A20745, MHA, Table 3)?
Answer: The MIC was 0.4 µg/mL (≈ 0.699 µM).

Question: And the MIC ([4]; Ps-1 A20745, MHA, Table 4)?
Answer: The MIC was 12.5 µg/mL (≈ 21.8 µM).

Question: And the MIC ([4]; Ps-1 A20745, NA, Table 4)?
Answer: The MIC was 50 µg/mL (≈ 87.3 µM).

Question: What about the MIC ([4]; Ps-2 A20894, HIA, Table 4) of the same molecule?
Answer: Its MIC is 0.4 µg/mL (≈ 0.699 µM).

Question: And the MIC ([4]; Ps-2 A20894, MHA, Table 3)?
Answer: Its MIC is 0.2 µg/mL (≈ 0.349 µM).

Question: And the MIC ([4]; Ps-2 A20894, MHA, Table 4)?
Answer: Its MIC is 0.2 µg/mL (≈ 0.349 µM).

Question: And the MIC ([4]; Ps-2 A20894, NA, Table 4)?
Answer: Its MIC is 0.8 µg/mL (≈ 1.4 µM).

Question: And the MIC ([4]; Ps-3 A20911 (β-lactamase), HIA, Table 4)?
Answer: The MIC was 25 µg/mL (≈ 43.7 µM).

Question: And the MIC ([4]; Ps-3 A20911 (β-lactamase), MHA, Table 4)?
Answer: Its MIC is 12.5 µg/mL (≈ 21.8 µM).

Question: And the MIC ([4]; Ps-3 A20911 (β-lactamase), NA, Table 4)?
Answer: The MIC was 50 µg/mL (≈ 87.3 µM).

Question: And the MIC ([4]; Ps-3 A20911, MHA, Table 3)?
Answer: The MIC was 0.8 µg/mL (≈ 1.4 µM).

Question: And the MIC ([4]; Ps-4 A21051, MHA, Table 3)?
Answer: The MIC was 50 µg/mL (≈ 87.3 µM).

Question: And the MIC ([4]; Ps-5 A21057, MHA, Table 3)?
Answer: Its MIC is 0.2 µg/mL (≈ 0.349 µM).

Question: And the MIC ([5]; Kx-2 A9662, MHA, Table 3)?
Answer: The MIC was 0.4 µg/mL (≈ 0.699 µM).

Question: And the MIC ([5]; Kx-3 A20346 (β-lactamase), HIA, Table 4)?
Answer: Its MIC is 0.2 µg/mL (≈ 0.349 µM).

Question: And the MIC ([5]; Kx-3 A20346 (β-lactamase), MHA, Table 4)?
Answer: The MIC was 0.2 µg/mL (≈ 0.349 µM).

Question: And the MIC ([5]; Kx-3 A20346 (β-lactamase), NA, Table 4)?
Answer: The MIC was 0.2 µg/mL (≈ 0.349 µM).

Question: What about the MIC ([5]; Kx-3 A20346, MHA, Table 3) of the same molecule?
Answer: The MIC was 0.2 µg/mL (≈ 0.349 µM).

Question: What about the concentration at 0.25 h ([6]; sc 10 mg./kg.) of the same molecule?
Answer: Its concentration at 0.25 h is 5000 ng/mL.

Question: And the concentration at 0.5 h ([6]; sc 10 mg./kg.)?
Answer: The concentration at 0.5 h was 3000 ng/mL.

Question: What about the concentration at 1 h ([6]; sc 10 mg./kg.) of the same molecule?
Answer: Its concentration at 1 h is 800 ng/mL.

Question: What about the concentration at 0.25 h ([6]; sc 20 mg./kg.) of the same molecule?
Answer: Its concentration at 0.25 h is 7400 ng/mL.

Question: What about the concentration at 0.5 h ([6]; sc 20 mg./kg.) of the same molecule?
Answer: Its concentration at 0.5 h is 6000 ng/mL.

Question: And the concentration at 1 h ([6]; sc 20 mg./kg.)?
Answer: Its concentration at 1 h is 4300 ng/mL.

Question: What about the concentration at 2 h ([6]; sc 20 mg./kg.) of the same molecule?
Answer: Its concentration at 2 h is 700 ng/mL.

Question: And the concentration at 0.25 h ([6]; sc 40 mg./kg.)?
Answer: The concentration at 0.25 h was 19000 ng/mL.

Question: And the concentration at 0.5 h ([6]; sc 40 mg./kg.)?
Answer: The concentration at 0.5 h was 17000 ng/mL.

Question: What about the concentration at 1 h ([6]; sc 40 mg./kg.) of the same molecule?
Answer: Its concentration at 1 h is 12000 ng/mL.

Question: What about the concentration at 2 h ([6]; sc 40 mg./kg.) of the same molecule?
Answer: Its concentration at 2 h is 1600 ng/mL.

Question: And the ED50 ([7]; Proteus mirabilis, in Mus musculus, sc, read-out: PD50)?
Answer: The ED50 was 1.1 mg/kg.

Question: What about the “No. of survivors/No. tested” value ([7]; 0.1 mg./kg.) of the same molecule?
Answer: Its value is 0/5.

Question: What about the “No. of survivors/No. tested” value ([7]; 0.4 mg./kg.) of the same molecule?
Answer: The value was 0/5.

Question: And the “No. of survivors/No. tested” value ([7]; 1.6 mg./kg.)?
Answer: The value was 4/5.

Question: And the “No. of survivors/No. tested” value ([7]; 6.3 mg./kg.)?
Answer: The value was 5/5.

Question: And the “No. of survivors/No. tested” value ([7]; 25 mg./kg.)?
Answer: The value was 5/5.
